Measurements from patent US20110195951A1, “DIAZAINDOLE DERIVATIVES AND THEIR USE IN THE INHIBITION OF C-JUN N-TERMINAL KINASE” (EISAI R&D MANAGEMENT CO., LTD., priority 2008, published 2011).

Molecular target: JNK3 (Homo sapiens, UniProt P53779)
Test: JNK3 SPA assay (phosphorylation of GST-c-Jun)
Type: biochemical
Conditions: 3.33 μM ATP, GST-c-Jun substrate, 30 minutes at room temperature, read-out: IC50 values for compounds (I) against JNK3
Experimental: JNK1, JNK2, JNK3—SPA Assay
• 1. The compound was dissolved in DMSO to a convenient concentration and this was diluted in 10% DMSO to a five times concentrate of the desired starting concentration (frequently 1:100). • 2. 10 μl of 500 mM EDTA was added to alternative wells of the Opti-plate row, which would receive kinase reaction plus DMSO. This created the negative control. • 3. For the JNK2 and JNK3 assay, compounds were prepared in six 2-fold dilutions with water and each concentration is tested in duplicate. For the JNK1 assay compounds are prepared in four 5-fold dilutions with water which are tested in triplicate. Controls were treated identically. • 4. […] per well of each compound concentration was transferred to an Opti-plate, in duplicate. • 5. 30 μl (JNK2/3 SPA) or 50 μl (JNK1 SPA) of substrate solution (25 mM HEPES pH 7.5, 10 mM magnesium acetate with 3.33 μM ATP (JNK2/3) or 2 μM ATP (JNK1), approximately 7.5 kBq [γ-^33P] ATP, GST-c-Jun, in water) was added to each well. • 6. 50 μl (JNK2/3 SPA) or 30 μl (JNK1 SPA) of kinase solution (JNK in 25 mM HEPES pH 7.5, 10 mM Mg Acetate) was added to each well.
• 7. The plate was incubated for 30 minutes at room temperature. • 8. 100 μl of bead/stop solution was added to each well (5 mg/ml glutathione-PVT-SPA beads, 40 mM ATP in PBS). • 9. Plates were sealed and incubated for 30 minutes at room temperature, centrifuged for 10 minutes at 2500 g and counted. • 10. The IC50 values were calculated as the concentration of the compound being tested at which the phosphorylation of c-Jun was decreased to 50% of the control value.

Chain of JNK3 (P53779 whole entry, species assumed): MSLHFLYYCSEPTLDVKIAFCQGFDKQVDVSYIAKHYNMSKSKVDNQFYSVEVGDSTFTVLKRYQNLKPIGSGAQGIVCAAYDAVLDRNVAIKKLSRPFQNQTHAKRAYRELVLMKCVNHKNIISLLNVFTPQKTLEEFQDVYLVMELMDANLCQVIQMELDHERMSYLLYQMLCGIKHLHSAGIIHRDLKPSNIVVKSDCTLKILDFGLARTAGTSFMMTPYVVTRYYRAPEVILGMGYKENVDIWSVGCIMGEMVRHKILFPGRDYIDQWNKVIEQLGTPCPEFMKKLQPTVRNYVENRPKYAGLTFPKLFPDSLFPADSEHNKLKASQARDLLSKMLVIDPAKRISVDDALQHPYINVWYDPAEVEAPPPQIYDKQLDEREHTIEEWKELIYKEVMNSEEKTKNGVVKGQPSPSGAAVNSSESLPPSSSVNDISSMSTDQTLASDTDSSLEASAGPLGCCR

IC50 [µM] | SMILES
> 2 | Cn1cc(-c2n[nH]c3ncc([C@H]4CC[C@@H](N5CCCOCC5)CC4)cc23)cn1 [Example 3, 4-((1s,4s)-4-(3-(1-methyl-1H-pyrazol-4-yl)-1H-pyrazolo[3,4-b]pyridin-5-yl)cyclohexyl)-1,4-oxazepane]
1.7 | Cn1cc(-c2n[nH]c3ncc(C4CCCCC4)cc23)cn1 [Example 1, 5-cyclohexyl-3-(1-methyl-1H-pyrazol-4-yl)-1H-pyrazolo[3,4-b]pyridine]
> 2 | Cn1cc(-c2n[nH]c3ncc([C@H]4CC[C@H](N5CCCOCC5)CC4)cc23)cn1 [Example 2, 4-((1r,4r)-4-(3-(1-methyl-1H-pyrazol-4-yl)-1H-pyrazolo[3,4-b]pyridin-5-yl)cyclohexyl)-1,4-oxazepane]
0.178 | Cn1cc(-c2c[nH]c3ncc(C4CCCCC4)nc23)cn1 [Example 4, 2-cyclohexyl-7-(1-methyl-1H-pyrazol-4-yl)-5H-pyrrolo[3,2-b]pyrazine]
